Publication PMC5719408, “Multivalent cross-linking of actin filaments and microtubules through the microtubule-associated protein Tau” (Nature Communications, 2017)
Entries after “also recorded” stand apart in the source; their conditions may differ.

Key:
F-actin [1] = assay: 2D 1H-15N HSQC NMR signal attenuation of Tau by F-actin; assay type: binding, human; details: Tau/F-actin molar ratio 1:1.5; compared with non-phosphorylated Tau
Source text: In order to identify residues in Tau that bind to F-actin, we used NMR spectroscopy. […] According to the resonance assignment of Tau[27], cross-peaks from residues such as S262, N265, and T319 were strongly attenuated. Other residues including T175 and T217 were less affected, and S46 and S64 were not perturbed. Figure 1f highlights the sequence specific intensity ratio of all non-overlapping cross-peaks of Tau in the presence and absence of F-actin. […] In contrast, residues, which are bound to F-actin, should have low (I bound/I free) values, because their resonances would—due to the high molecular weight of the complex—be attenuated. […] Consistent with this hypothesis, the cross-peaks of these residues were attenuated by F-actin also at higher ionic strength (Supplementary Fig. 3).
The sample was then dialyzed against General Actin Buffer (GAB; 5 mM TrisHCl pH 8.0, 0.2 mM CaCl2, 0.2 mM ATP, 0.5 mM DTT) or NMR buffer (50 mM NaH2PO4/Na2HPO4 pH 6.8, 10 mM NaCl, 1 mM DTT, 10% (v/v) D2O) to be used for electron microscopy or NMR experiments, respectively. In case of actin, lyophilized actin was reconstituted to 10 mg ml^−1 by adding 100 μl of distilled water to be in the following buffer: GAB with 5% (w/v) sucrose and 1% (w/v) dextran. […]

F-actin [2] = assay: Protein co-sedimentation / actin bundling (differential centrifugation, SDS gel); assay type: biochemical, human; details: co-sedimentation; F-actin with Tau (1:1) or Tau peptides (1:10; Tau(254–268) 1:30), room temperature 30 min
Method: The ability of Tau to bundle F-actin was studied using electron microscopy (EM). […] Next, Tau/F-actin co-sedimentation was performed. The same sample, which was used for EM, was exposed to two sequential steps of centrifugation, in which single-actin filaments and actin bundles were collected separately. Subsequently, aliquots from supernatant (SN), filament (PF), and bundle (PB) fractions were loaded in a 4–20% gradient gel (Fig. 1c).
The sample was then dialyzed against General Actin Buffer (GAB; 5 mM TrisHCl pH 8.0, 0.2 mM CaCl2, 0.2 mM ATP, 0.5 mM DTT) or NMR buffer (50 mM NaH2PO4/Na2HPO4 pH 6.8, 10 mM NaCl, 1 mM DTT, 10% (v/v) D2O) to be used for electron microscopy or NMR experiments, respectively. In case of actin, lyophilized actin was reconstituted to 10 mg ml^−1 by adding 100 μl of distilled water to be in the following buffer: GAB with 5% (w/v) sucrose and 1% (w/v) dextran. Subsequently, the sample was spun at 18,400 × g for 15 min, the supernatant was kept, and actin was polymerized by incubating 0.4 mg ml^−1 G-actin in GAB and supplemented with polymerization buffer (1/10th the volume; 100 mM Tris HCl pH 7.5, 20 mM MgCl2, 500 mM KCl, 10 mM ATP) for 1 h at room temperature. Afterwards, the sample was centrifuged at 100,000 × g during 1 h at 4 °C. Filaments were collected at the bottom of the ultracentrifuge tube. The pellet was then resuspended in GAB or NMR Buffer as required.
Mixtures of F-actin with Tau (1:1) or Tau peptides (1:10 molar ratio) were incubated at room temperature for 30 min. In case of the shorter peptide Tau(254–268), a 1:30 ratio was used. Centrifugation was performed in two steps. First, a spin rate of 5000 × g was used during 15 min to collect bundles of F-actin (PB) at the bottom of the tube. Secondly, the remaining sample was centrifuged at 100,000 × g during 1 h collecting actin filaments (PF). The final supernatant (SN) was also kept for later usage. Pellets were resuspended in 80 μl of GAB. A volume of 25 μl of sample were taken for EM while the remaining 55 μl were loaded in a 4–20% gradient SDS gel, which was colored with […] and denatured with SDS and heat.

Substance: MARK2-phosphorylated Tau: full-length Tau phosphorylated by MARK2 at S262, S293, S305, S324, S356, and S416
- F-actin-induced NMR signal attenuation near phosphorylation sites / F-actin binding in words (F-actin [1]): little attenuation of NMR signals in vicinity of the phosphorylation sites; also recorded: attenuates its binding to F-actin
- bundling of F-actin (F-actin [2]): failed in bundling actin filaments
